Test results reported in PubChem BioAssay (NCI).
Values joined by “and” are separate entries in the source; they are usually repeats but may differ in a detail not shown here. Identical values can stand only once.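 Step 1: Grow cells in 96-well plates. Step 2: Expose to compound for 48 hours at 5 concentrations. Step 3: Interpolate endpoints linearly; if unreached, use highest concentration. GI50: concentration for 50% inhibition of growth. The concentration for full growth arrest is given as TGI.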

Assays:
Assay in all cases: NCI-60 cell line screen, 48 h
[1] = tested on: SK-MEL-28 melanoma
[2] = tested on: COLO 205 colon
[3] = tested on: OVCAR-3 ovarian
[4] = tested on: CAKI-1 renal
[5] = tested on: K-562 leukemia
[6] = tested on: LOX IMVI melanoma
[7] = tested on: NCI-H226 lung
[8] = tested on: KM12 colon
[9] = tested on: T-47D breast
[10] = tested on: HL-60(TB) leukemia

Cc1ccc(S(=O)(=O)SC/C=C\CSS(=O)(=O)c2ccc(C)cc2)cc1
GI50 [1]: 39.7 µM and 18.8 µM
TGI [1]: > 78.8 µM and 35.5 µM
GI50 [2]: 8.94 µM and 18.8 µM
TGI [2]: 33.1 µM and 33.6 µM
TGI [3]: 78.8 µM and 56 µM
TGI [4]: 88.9 µM and 45.7 µM
TGI [5]: 25.2 µM and 64.9 µM
GI50 [6]: 4.68 µM and 13.5 µM
TGI [6]: 33.2 µM and 29.1 µM
TGI [7]: 71.5 µM and 55.2 µM
TGI [8]: > 100 µM and 30.4 µM
TGI [9]: > 100 µM

O=C(NCCCOC(=O)CCCCCCCCC(=O)OCCCNC(=O)NC(=O)c1c[nH]c(=O)[nH]c1=O)NC(=O)c1c[nH]c(=O)[nH]c1=O
TGI [1]: > 100 µM
TGI [10]: > 100 µM
TGI [2]: > 100 µM
TGI [3]: > 100 µM
TGI [4]: > 100 µM
TGI [5]: > 100 µM
TGI [6]: > 100 µM
TGI [8]: > 100 µM

O=C(COc1ccccc1Cl)N1N=C(c2ccc(Cl)cc2)CC1(O)c1ccccc1 (stereo not given)
TGI [1]: > 100 µM
TGI [10]: > 100 µM
TGI [2]: > 100 µM
TGI [3]: > 100 µM
TGI [4]: > 100 µM
TGI [5]: > 100 µM
TGI [6]: > 100 µM
TGI [7]: > 100 µM
TGI [8]: > 100 µM

C[N+](C)(C)CCC(=O)CC[N+](C)(C)C
TGI [1]: 50.1 µM
TGI [10]: 17.5 µM
TGI [2]: 31.8 µM
TGI [3]: 33.9 µM
TGI [4]: 29.2 µM
TGI [5]: 24.3 µM
TGI [8]: 42.2 µM

C=C(c1ccccc1)C1(O)CCCCC1N (stereo not given)
TGI [1]: > 100 µM
TGI [10]: 43.5 µM
TGI [2]: > 100 µM
TGI [3]: > 100 µM
TGI [4]: > 100 µM
TGI [5]: > 100 µM
TGI [6]: > 100 µM
TGI [7]: > 100 µM
TGI [8]: > 100 µM

COc1ccc2nccc(C3=CCC4CCN(C(=O)c5ccccc5)C3C4)c2c1 (stereo not given)
TGI [1]: > 100 µM
TGI [10]: > 100 µM
TGI [2]: > 100 µM
TGI [3]: > 100 µM
TGI [4]: > 100 µM
TGI [5]: > 100 µM
TGI [6]: > 100 µM
TGI [8]: > 100 µM

Cn1ccnc1CCc1c(Cl)cccc1Cl
TGI [1]: > 100 µM
TGI [10]: > 100 µM
TGI [2]: > 100 µM
TGI [3]: > 100 µM
TGI [4]: > 100 µM
TGI [5]: > 100 µM
TGI [6]: > 100 µM
TGI [7]: > 100 µM
TGI [8]: > 100 µM

O=C(N/N=C/c1ccccc1O)N/N=C/c1ccccc1O
TGI [1]: > 100 µM
TGI [10]: > 100 µM
TGI [2]: > 100 µM
TGI [3]: > 100 µM
TGI [5]: > 100 µM
TGI [6]: > 100 µM
TGI [7]: > 100 µM

COc1cc(Cl)cc(=O)c(O)c1OC
TGI [1]: > 100 µM
TGI [10]: > 80.9 µM
TGI [2]: > 81.2 µM
TGI [3]: > 87.2 µM
TGI [5]: > 100 µM
TGI [6]: > 100 µM
TGI [7]: > 87.2 µM
TGI [8]: > 100 µM

COC(=O)c1sc(C(=O)OC)c2c1CS(=O)C2
TGI [1]: > 100 µM
TGI [10]: > 100 µM
TGI [2]: > 100 µM
TGI [3]: > 100 µM
TGI [4]: > 100 µM
TGI [5]: > 100 µM
TGI [6]: > 100 µM
TGI [7]: > 100 µM
TGI [8]: > 100 µM

Cc1c(OC(C)C(=O)O)ccc2c(-c3ccccc3)cc(=O)oc12 (stereo not given)
TGI [1]: > 100 µM
TGI [10]: > 100 µM
TGI [2]: > 100 µM
TGI [3]: > 100 µM
TGI [4]: > 100 µM
TGI [5]: > 100 µM
TGI [6]: > 100 µM
TGI [7]: > 100 µM
TGI [8]: > 100 µM

CCc1c(C#N)c(=O)[nH]c(=O)n1CCN1CCN(C(=O)NCCCCCCNC(=O)N2CCN(CCn3c(CC)c(C#N)c(=O)[nH]c3=O)CC2)CC1
TGI [10]: > 100 µM
TGI [2]: > 100 µM
TGI [3]: > 100 µM
TGI [4]: > 100 µM
TGI [5]: > 100 µM
TGI [6]: > 100 µM

Cc1cc2c(C)nn(Cc3ccccc3)c2c(C(=O)O)c1C
TGI [1]: > 100 µM
TGI [10]: > 100 µM
TGI [2]: > 100 µM
TGI [3]: > 100 µM
TGI [6]: > 100 µM
TGI [7]: > 100 µM

CCOC(=O)NC(=O)c1cn(CCN2CCN(C(=O)NCCCCCCNC(=O)N3CCN(CCn4cc(C(=O)NC(=O)OCC)c(=O)[nH]c4=O)CC3)CC2)c(=O)[nH]c1=O
TGI [1]: > 100 µM
TGI [10]: > 100 µM
TGI [2]: > 100 µM
TGI [3]: > 100 µM
TGI [5]: > 100 µM
TGI [6]: > 100 µM
TGI [8]: > 100 µM

O=C1Nc2ccccc2C1(O)C/C(=N/O)c1ccc2ccccc2c1 (stereo not given)
TGI [1]: > 100 µM
TGI [10]: > 100 µM
TGI [2]: > 100 µM
TGI [3]: > 100 µM
TGI [5]: > 100 µM
TGI [6]: 81.9 µM
TGI [7]: > 100 µM
TGI [8]: > 100 µM

CC[O-].CC[O-].O=C([CH-]C(=O)c1ccccc1)CCCCCCCCC(=O)[CH-]C(=O)c1ccccc1.[Ti+4]
GI50 [1]: > 100 µM
TGI [1]: > 100 µM
GI50 [10]: > 100 µM
TGI [10]: > 100 µM
GI50 [2]: > 100 µM
TGI [2]: > 100 µM
GI50 [3]: 0.756 µM
TGI [3]: > 100 µM
GI50 [4]: > 100 µM
TGI [4]: > 100 µM
GI50 [5]: > 100 µM
TGI [5]: > 100 µM
GI50 [6]: > 100 µM
TGI [6]: > 100 µM
GI50 [8]: 0.032 µM
TGI [8]: 3.25 µM

Clc1ccc(-c2cn3ccnc3c(-c3ccc(Cl)cc3)n2)cc1
GI50 [1]: > 100 µM
TGI [1]: > 100 µM
GI50 [10]: 0.954 µM
TGI [10]: 19 µM
GI50 [2]: 27.6 µM
TGI [2]: > 100 µM
GI50 [3]: 16.8 µM
TGI [3]: > 100 µM
GI50 [4]: 4.23 µM
TGI [4]: 46 µM
GI50 [5]: 2.25 µM
TGI [5]: > 100 µM
GI50 [6]: 12.7 µM
TGI [6]: 31.5 µM
GI50 [7]: 40.8 µM
TGI [7]: > 100 µM
GI50 [8]: 5.33 µM
TGI [8]: 37.9 µM

CCOC(=O)Oc1c(OC)cc(C(=O)c2ccc(OC)c(O)c2OC)cc1OC
GI50 [1]: 2.78 µM
TGI [1]: > 100 µM
GI50 [2]: 12.5 µM
TGI [2]: 63.5 µM
GI50 [3]: 0.414 µM
TGI [3]: > 100 µM
GI50 [4]: 1.81 µM
TGI [4]: > 100 µM
GI50 [5]: 0.416 µM
TGI [5]: > 100 µM
GI50 [6]: 0.557 µM
TGI [6]: > 100 µM
GI50 [7]: 4.56 µM
TGI [7]: 40.7 µM
GI50 [8]: 0.52 µM
TGI [8]: > 100 µM

CCc1cccc(C)c1NS(=O)(=O)c1ccccc1
TGI [1]: > 100 µM
TGI [10]: > 100 µM
TGI [3]: > 100 µM
TGI [4]: > 100 µM
TGI [5]: > 100 µM
TGI [7]: > 100 µM
TGI [8]: > 100 µM

CCOC(=O)Cc1nc2ccc3c(c2[nH]c1=O)C(=O)c1ccccc1C3=O
TGI [1]: > 100 µM
TGI [2]: > 100 µM
TGI [3]: > 100 µM
TGI [4]: > 100 µM
TGI [5]: > 100 µM
TGI [6]: > 100 µM
TGI [7]: > 100 µM
TGI [8]: > 100 µM

c1cc[c]([Sn][c]2ccccc2)cc1
GI50 [1]: 14.5 µM
TGI [1]: 36 µM
GI50 [10]: 20.5 µM
TGI [10]: 41.9 µM
GI50 [2]: 24.3 µM
TGI [2]: 59.4 µM
GI50 [3]: 17.8 µM
TGI [3]: 35 µM
GI50 [4]: 24 µM
TGI [4]: > 92.3 µM
GI50 [5]: 25.2 µM
TGI [5]: 69 µM
GI50 [6]: 20.6 µM
TGI [6]: 42 µM
GI50 [7]: 21.8 µM
TGI [7]: 54.8 µM
GI50 [8]: 13.6 µM
TGI [8]: 19.2 µM
